Experimental data: publication PMC8051587 (ACS chemical biology, 2020)
Values joined by “and” are separate entries in the source; they are usually repeats but may differ in a detail not shown here. Equal values may be shown once. Read-outs that look alike come from different tables or passages of the source.

Key:
[1] = biological target: T1, full-length A/Udorn/72 M2 S31N (Influenza A virus, UniProt P0DOF5, S31N)
A/WSN/33 M2 N31S virus = type: cell-based, influenza A virus; details: for EC50: read-out: EC50 ± SD
[2] = system: A/WSN/33 virus (with naturally occurring M2 N31); assay: microbe, parasite or virus in culture; type: cell-based; details: for EC50: read-out: EC50 ± SD
[3] = biological target: T1, full-length A/Udorn/72 M2 S31N; details: cited from earlier work
[4] = CPE inhibition assay, MDCK cells, amantadine-resistant A/WSN/33 (M2 N31)

| Compound | Blockage Eliminated in Wash Out(%) [1] [%] | Kd [1] [µM] | Percent Block [1] | kon [1] [M⁻¹ s⁻¹] | EC50 ± SD (A/WSN/33 M2 N31S virus) | EC50 [2, 4] [nM] | IC50 ([3]; read-out: IC50 in TEVC with M2 S31N, previously reported) [µM] | Kd ([3]; read-out: Kd (literature value, footnote g), footnote to the Kd value, ref [3]) [µM] | EC50 (A/WSN/33 M2 N31S virus) [nM] | EC50 ([2]; Influenza A virus, WSN, MDCK) [nM] | EC50 ± SD [2, 4] |
| --- | --- | --- | --- | --- | --- | --- | --- | --- | --- | --- | --- |
| c1csc(-c2cc(CNC34CC5CC(CC(C5)C3)C4)on2)c1 [Compound 6] | 6.8 ± 1.2 | 7.5 ± 0.3 | 99.2% and 99 ± 1% | 2280 ± 150 | not active | 153 | 16 | 16 | – | – | – |
| CCOC(=O)C1=C[C@@H](OC(CC)CC)[C@H](NC(C)=O)[C@@H](N)C1 [Oseltamivir] | – | – | – | – | – | – | – | – | 30 ± 20 | 10 ± 10 | – |
| NC12CC3CC(CC(C3)C1)C2 [Amantadine, amantadine] | – | – | – | – | – | – | – | – | 250 ± 70 | – | not active |
